Measurements as given in the Deep4Chem optical property database.

Experiment: solvent given as SMILES

CC1=CC(C)(C)N(C)c2cc3c(cc21)C(c1ccc(Br)cc1)=c1cc2c(cc1O3)=[N+](C)C(C)(C)C=C2C
emission maximum (in CCO): 616 nm

O=C(c1ccc2c3c(cccc13)-c1cccc3c1C2CC=C3)c1c(CCc2ccccc2)c2ccc3cccc4c5cccc6ccc1c(c65)c2c34 (stereo not drawn)
emission maximum (in ClCCl): 527 nm

COc1ccc(N2c3cc(OC)ccc3N=c3cc4c(cc32)=Nc2cc(C(C)(C)C)cc(C(C)(C)C)c2O4)cc1
emission maximum (in CC#N): 624 nm
emission maximum (in CCCCCC): 587 nm
emission maximum (in CO): 633 nm

COc1ccccc1C1=[N+]2C(=C(c3ccccc3)c3c4c(c(-c5ccccc5OC)n3[B-]2(F)F)C2CCC4CC2)C2=C1C1CCC2CC1
emission maximum (in ClCCl): 583 nm

c1ccc(-c2nc(-c3ccc(-c4ccc(-c5nc(-c6ccccc6)c(-c6ccccc6)o5)cc4)cc3)oc2-c2ccccc2)cc1
emission maximum (in C1COCCO1): 428 nm

CCc1cc(CC)cc(-n2c3ccccc3c3cc4c(cc32)c2ccccc2n4-c2cc(CC)cc(CC)c2)c1
emission maximum (in ClC(Cl)Cl): 416 nm

ClP1(Cl)=N[P@@](Cl)(Oc2ccc3ccc4cccc5ccc2c3c45)=N[P@@](Cl)(Oc2ccc3ccc4cccc5ccc2c3c45)=N1
emission maximum (in ClCCl): 455 nm

c1ccc2c(c1)Cc1ccccc1N2c1c2ccccc2cc2ccccc12
emission maximum (in Cc1ccccc1): 535 nm

CN(C)c1ccc(-n2c(-c3ccncc3)nc3ccccc32)cc1
emission maximum (in CC#N): 556 nm

N#Cc1c(-n2c3ccccc3c3ccccc32)c(-n2c3ccccc3c3ccccc32)c(C#N)c(-n2c3ccccc3c3ccccc32)c1-n1c2ccccc2c2ccccc21
emission maximum (in Cc1ccccc1): 535 nm

COc1ccc(C2=CC(c3cc(OC)cc(OC)c3)=[O+][B-](F)(F)O2)cc1
emission maximum (in CC#N): 587.1 nm
emission maximum (in CC(C)=O): 556.04 nm
emission maximum (in CCCCCC): 410.21 nm
emission maximum (in Cc1ccccc1): 450.94 nm
emission maximum (in ClCCl): 525 nm

Cc1cc(C)c(B(c2ccc(N3c4ccccc4C(C)(C)c4ccccc43)cc2)c2c(C)cc(C)cc2C)c(C)c1
emission maximum (in C1CCCCC1): 442 nm
emission maximum (in C1CCOC1): 530 nm
emission maximum (in CN(C)C=O): 578.72 nm
emission maximum (in Cc1ccccc1): 484 nm
emission maximum (in ClCCl): 540.77 nm

CCCCCCc1cc2c3cscc3c3cc(CCCCCC)sc3c2s1
emission maximum (in ClC(Cl)Cl): 442 nm
